# According to US20260262643A1, “HERBICIDAL BENZOXAZINES” (FMC CORPORATION, priority 2022, published 2026):
# Experiments:
# ragweed [1] = assay: Test C preemergence; assay type: in vivo, Ambrosia artemisiifolia; conditions: for Plant response rating, Ragweed: Preemergence; for Ragweed plant response rating: Test C, preemergence, 125 g ai/ha
# In short: (§1)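 Visual injury score, 0–100 (100 = complete control), taken 10 days after treatment relative to untreated controls. Pre: directed spray onto soil over sown seeds. Post: foliar spray at one- to two-leaf stage, 2–10 cm. Solvent/surfactant formulation; loam–sand soil; greenhouse.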
# pigweed, palmer [2] = assay: Test C postemergence; assay type: in vivo, Amaranthus palmeri; conditions: 10 days
# In short: as §1
# oat, wild [3] = assay: Test C postemergence; assay type: in vivo, Avena fatua; conditions: 10 days
# Description: (§2) Seeds of plant species selected from barnyardgrass (Echinochloa crusgalli), blackgrass (Alopecurus myosuroides), corn (Zea mays), foxtail, giant (giant foxtail, Setaria faberi), green foxtail (Setaria viridis), goosegrass (Eleusine indica), kochia (Bassia scoparia), oat, wild (wild oat, Avena fatua), pigweed, palmer (palmer amaranth, palmer pigweed, Amaranthus palmeri), Pigweed, Redroot (redroot pigweed, Amaranthus retroflexus), ragweed (common ragweed, Ambrosia artemisiifolia), ryegrass, Italian ([…] ryegrass, Lolium multiflorum), soybean (Glycine max), and wheat (Triticum aestivum) were planted into a blend of loam soil and sand and treated preemergence with a directed soil spray using test chemicals formulated in a non-phytotoxic solvent mixture which included a surfactant. At the same time, plants selected from these crops and weed species and also galium (catchweed bedstraw, Galium aparine) and horseweed (Erigeron canadensis) were planted in pots containing the same blend of loam soil and sand and treated with postemergence applications of test chemicals formulated in the same manner. Plants ranged in height from 2 to 10 cm and were in the one- to two-leaf stage for the postemergence treatment. Treated plants and untreated controls were maintained in a greenhouse for 10 days, after which time all treated plants were compared to untreated controls and visually evaluated for injury. Plant response ratings, summarized in Table C, are based on a 0 to 100 scale where 0 is no effect and 100 is complete control. A dash (-) response means no test result.
# blackgrass [4] = assay: Test C preemergence; assay type: in vivo, Alopecurus myosuroides; conditions: for Plant response rating, Blackgrass: Preemergence; for Blackgrass plant response rating: Test C, preemergence, 125 g ai/ha
# In short: as §1
# soybean [5] = assay: Test C postemergence; assay type: in vivo, Glycine max; conditions: 10 days
# Description: as §2
# blackgrass [6] = assay: Test C postemergence; assay type: in vivo, Alopecurus myosuroides; conditions: 10 days
# In short: as §1
# ryegrass, Italian [7] = assay: Test C postemergence; assay type: in vivo, Lolium multiflorum; conditions: 10 days
# In short: as §1
# corn [8] = assay: Test C preemergence; assay type: in vivo, Zea mays; conditions: for Plant response rating, Corn: Preemergence; for Corn plant response rating: Test C, preemergence, 125 g ai/ha
# Description: as §2
# galium = assay: Test C postemergence; assay type: in vivo, Galium aparine; conditions: 10 days
# In short: as §1
# ragweed [9] = assay: Test C postemergence; assay type: in vivo, Ambrosia artemisiifolia; conditions: 10 days
# In short: as §1
# barnyardgrass [10] = assay: Test C preemergence; assay type: in vivo, Echinochloa crusgalli; conditions: for Barnyardgrass plant response rating: 125 g ai/ha, preemergence; for Plant response rating, Barnyardgrass: Preemergence
# In short: as §1
# barnyardgrass [11] = assay: Test C postemergence; assay type: in vivo, Echinochloa crusgalli; conditions: 10 days
# In short: as §1
# soybean [12] = assay: Test C preemergence; assay type: in vivo, Glycine max; conditions: for Plant response rating, Soybean: Preemergence; for Soybean plant response rating: Test C, preemergence, 125 g ai/ha
# Description: as §2
# kochia [13] = assay: Test C preemergence; assay type: in vivo, Bassia scoparia; conditions: for Plant response rating, Kochia: Preemergence; for Kochia plant response rating: Test C, preemergence, 125 g ai/ha
# In short: as §1
# corn [14] = assay: Test C postemergence; assay type: in vivo, Zea mays; conditions: 10 days
# Description: as §2
# wheat [15] = assay: Test C postemergence; assay type: in vivo, Triticum aestivum; conditions: 10 days
# Description: as §2
# kochia [16] = assay: Test C postemergence; assay type: in vivo, Bassia scoparia; conditions: 10 days
# In short: as §1
# ryegrass, Italian [17] = assay: Test C preemergence; assay type: in vivo, Lolium multiflorum; conditions: for Plant response rating, Ryegrass, Italian: Preemergence; for Ryegrass, Italian plant response rating: Test C, preemergence, 125 g ai/ha
# In short: as §1
# green foxtail [18] = assay: Test C postemergence; assay type: in vivo, Setaria viridis; conditions: 10 days
# In short: as §1
# pigweed, palmer [19] = assay: Test C preemergence; assay type: in vivo, Amaranthus palmeri; conditions: for Plant response rating, Pigweed, Palmer: Preemergence; for Pigweed, Palmer plant response rating: Test C, preemergence, 125 g ai/ha
# In short: as §1
# wheat [20] = assay: Test C preemergence; assay type: in vivo, Triticum aestivum; conditions: for Plant response rating, Wheat: Preemergence; for Wheat plant response rating: Test C, preemergence, 125 g ai/ha
# Description: as §2
# horseweed = assay: Test C postemergence; assay type: in vivo, Erigeron canadensis; conditions: 10 days
# In short: as §1
# green foxtail [21] = assay: Test C preemergence; assay type: in vivo, Setaria viridis; conditions: for Plant response rating, Foxtail, Green: Preemergence; for Foxtail, Green plant response rating: Test C, preemergence, 125 g ai/ha
# In short: as §1
# oat, wild [22] = assay: Test C preemergence; assay type: in vivo, Avena fatua
# Description: as §2
# [23] = 500 g ai/ha, visual rating after 10 days, 0 to 100 scale (0 no effect, 100 complete control)
# [24] = 0 to 100 scale (0 no effect, 100 complete control)
# [25] = 125 g ai/ha, postemergence, 0 to 100 scale, 0 no effect, 100 complete control
# [26] = Postemergence, 500 g ai/ha, visual 0 to 100 scale (0 no effect, 100 complete control)
# [27] = 31 g ai/ha, 0 to 100 scale, 0 no effect, 100 complete control
# [28] = Postemergence, 31 g ai/ha, 0 to 100 scale, 0 no effect, 100 complete control
compound,measurement,setting,value
CCc1ncn(-c2cc(OC)cc(C(=O)N3C[C@H](C)Oc4c(Cl)cccc43)c2)n1 [Compound 164],"Plant response rating, Ragweed",ragweed [1]; [23],60
same,Ragweed plant response rating,ragweed [1]; [24],70
same,"Plant response rating, Pigweed, Palmer","pigweed, palmer [2]; [25]",90
same,"Plant response rating, Pigweed, Palmer","pigweed, palmer [2]; [26]",100
same,"Plant response rating, Oat, Wild","oat, wild [3]; [25]",30
same,"Plant response rating, Oat, Wild","oat, wild [3]; [26]",50
same,"Plant response rating, Blackgrass",blackgrass [4]; [23],80
same,Blackgrass plant response rating,blackgrass [4]; [24],50
same,"Plant response rating, Soybean",soybean [5]; [25],100
same,"Plant response rating, Soybean",soybean [5]; [26],100
same,"Plant response rating, Blackgrass",blackgrass [6]; [25],70
same,"Plant response rating, Blackgrass",blackgrass [6]; [26],90
same,"Plant response rating, Ryegrass, Italian","ryegrass, Italian [7]; [25]",50
same,"Plant response rating, Ryegrass, Italian","ryegrass, Italian [7]; [26]",90
same,"Plant response rating, Corn",corn [8]; [23],30
same,Corn plant response rating,corn [8]; [24],30
same,"Plant response rating, Galium",galium; [25],100
same,"Plant response rating, Galium",galium; [26],100
same,"Plant response rating, Ragweed",ragweed [9]; [25],50
same,"Plant response rating, Ragweed",ragweed [9]; [26],90
same,Barnyardgrass plant response rating,barnyardgrass [10]; [24],50
same,"Plant response rating, Barnyardgrass",barnyardgrass [10]; [23],100
same,"Plant response rating, Barnyardgrass",barnyardgrass [11]; [25],40
same,"Plant response rating, Barnyardgrass",barnyardgrass [11]; [26],50
same,"Plant response rating, Soybean",soybean [12]; [23],100
same,Soybean plant response rating,soybean [12]; [24],90
same,"Plant response rating, Kochia",kochia [13]; [23],100
same,Kochia plant response rating,kochia [13]; [24],40
same,"Plant response rating, Corn",corn [14]; [25],30
same,"Plant response rating, Corn",corn [14]; [26],90
same,"Plant response rating, Wheat",wheat [15]; [25],30
same,"Plant response rating, Wheat",wheat [15]; [26],30
same,"Plant response rating, Kochia",kochia [16]; [25],80
same,"Plant response rating, Kochia",kochia [16]; [26],90
same,"Plant response rating, Ryegrass, Italian","ryegrass, Italian [17]; [23]",100
same,"Ryegrass, Italian plant response rating","ryegrass, Italian [17]; [24]",90
same,"Plant response rating, Foxtail, Green",green foxtail [18]; [25],50
same,"Plant response rating, Foxtail, Green",green foxtail [18]; [26],80
same,"Plant response rating, Pigweed, Palmer","pigweed, palmer [19]; [23]",100
same,"Pigweed, Palmer plant response rating","pigweed, palmer [19]; [24]",100
same,"Plant response rating, Wheat",wheat [20]; [23],60
same,Wheat plant response rating,wheat [20]; [24],20
same,"Plant response rating, Horseweed",horseweed; [25],20
same,"Plant response rating, Horseweed",horseweed; [26],50
same,"Plant response rating, Foxtail, Green",green foxtail [21]; [23],100
same,"Foxtail, Green plant response rating",green foxtail [21]; [24],100
Cc1ccc(-n2cnc(C3(O)CCCC3)n2)cc1C(=O)N1C[C@H](C)Oc2c(Cl)cccc21 [Compound 193],"Plant response rating, Ragweed",ragweed [1]; [27],0
same,Ragweed plant response rating,ragweed [1]; [24],60
same,"Plant response rating, Pigweed, Palmer","pigweed, palmer [2]; [25]",70
same,"Plant response rating, Pigweed, Palmer","pigweed, palmer [2]; [28]",20
same,"Plant response rating, Oat, Wild","oat, wild [3]; [25]",0
same,"Plant response rating, Oat, Wild","oat, wild [3]; [28]",0
same,"Plant response rating, Blackgrass",blackgrass [4]; [27],0
same,Blackgrass plant response rating,blackgrass [4]; [24],0
same,"Plant response rating, Soybean",soybean [5]; [25],100
same,"Plant response rating, Soybean",soybean [5]; [28],100
same,"Plant response rating, Blackgrass",blackgrass [6]; [25],60
same,"Plant response rating, Blackgrass",blackgrass [6]; [28],0
same,"Plant response rating, Ryegrass, Italian","ryegrass, Italian [7]; [25]",50
same,"Plant response rating, Ryegrass, Italian","ryegrass, Italian [7]; [28]",20
same,"Plant response rating, Corn",corn [8]; [27],0
same,Corn plant response rating,corn [8]; [24],0
same,"Plant response rating, Galium",galium; [25],100
same,"Plant response rating, Galium",galium; [28],60
same,"Plant response rating, Ragweed",ragweed [9]; [25],60
same,"Plant response rating, Ragweed",ragweed [9]; [28],50
same,"Plant response rating, Barnyardgrass",barnyardgrass [10]; [27],10
same,Barnyardgrass plant response rating,"barnyardgrass [10]; Test C, 0 to 100 scale (0 no effect, 100 complete control)",80
same,"Plant response rating, Barnyardgrass",barnyardgrass [11]; [25],40
same,"Plant response rating, Barnyardgrass",barnyardgrass [11]; [28],10
same,"Plant response rating, Soybean",soybean [12]; [27],0
same,Soybean plant response rating,soybean [12]; [24],90
same,"Plant response rating, Kochia",kochia [13]; [27],60
same,Kochia plant response rating,kochia [13]; [24],100
same,"Plant response rating, Corn",corn [14]; [25],0
same,"Plant response rating, Corn",corn [14]; [28],0
same,"Plant response rating, Wheat",wheat [15]; [25],10
same,"Plant response rating, Wheat",wheat [15]; [28],10
same,"Plant response rating, Kochia",kochia [16]; [25],80
same,"Plant response rating, Kochia",kochia [16]; [28],20
same,"Plant response rating, Ryegrass, Italian","ryegrass, Italian [17]; [27]",60
same,"Ryegrass, Italian plant response rating","ryegrass, Italian [17]; [24]",80
same,"Plant response rating, Oat, Wild","oat, wild [22]; Preemergence, 31 g ai/ha, 0 to 100 scale, 0 no effect, 100 complete control",0
same,"Oat, Wild plant response rating","oat, wild [22]; Test C, preemergence, 125 g ai/ha, 0 to 100 scale (0 no effect, 100 complete control)",20
same,"Plant response rating, Foxtail, Green",green foxtail [18]; [25],80
same,"Plant response rating, Foxtail, Green",green foxtail [18]; [28],30
same,"Plant response rating, Pigweed, Palmer","pigweed, palmer [19]; [27]",60
same,"Pigweed, Palmer plant response rating","pigweed, palmer [19]; [24]",90
same,"Plant response rating, Wheat",wheat [20]; [27],0
same,Wheat plant response rating,wheat [20]; [24],0
same,"Plant response rating, Horseweed",horseweed; [25],0
same,"Plant response rating, Horseweed",horseweed; [28],0
same,"Plant response rating, Foxtail, Green",green foxtail [21]; [27],0
same,"Foxtail, Green plant response rating",green foxtail [21]; [24],0
